Experimental data taken from PubChem BioAssay (NCI).
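GI50: concentration for 50% inhibition of growth. TGI denotes the concentration required for complete inhibition of growth.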

Columns and labels:
Assay in all cases: NCI tumour cell line growth inhibition, 384-well format
786-0 renal = system: 786-0 renal
A498 renal = system: A498 renal
A549 NSCLC = system: A549 NSCLC
ACHN renal = system: ACHN renal
BT-549 breast = system: BT-549 breast
CAKI-1 renal = system: CAKI-1 renal
CCRF-CEM leukemia = system: CCRF-CEM leukemia
COLO 205 colon = system: COLO 205 colon
DU-145 prostate = system: DU-145 prostate
EKVX NSCLC = system: EKVX NSCLC
HCC-2998 colon = system: HCC-2998 colon
HCT-116 colon = system: HCT-116 colon
HCT-15 colon = system: HCT-15 colon
HL-60(TB) leukemia = system: HL-60(TB) leukemia
HOP-62 NSCLC = system: HOP-62 NSCLC
HOP-92 NSCLC = system: HOP-92 NSCLC
HS 578T breast = system: HS 578T breast
HT29 colon = system: HT29 colon
IGROV1 ovarian = system: IGROV1 ovarian
K-562 leukemia = system: K-562 leukemia
KM12 colon = system: KM12 colon
LOX IMVI melanoma = system: LOX IMVI melanoma
M14 melanoma = system: M14 melanoma
MALME-3M melanoma = system: MALME-3M melanoma
MCF7 breast = system: MCF7 breast
MDA-MB-231 breast = system: MDA-MB-231 breast
MDA-MB-435 melanoma = system: MDA-MB-435 melanoma
MDA-MB-468 breast = system: MDA-MB-468 breast
MOLT-4 leukemia = system: MOLT-4 leukemia

Compound `O=C(NO)c1ccc(CN(c2cnccn2)c2cnccn2)cc1` has a GI50 ([…]-0 renal) of 14.5 µM, a TGI (786-0 renal) of 27.8 µM and a GI50 (A498 renal) of 11.9 µM. The TGI (A498 renal) was 25.8 µM, the GI50 (A549 NSCLC) was 13.8 µM and the TGI (A549 NSCLC) was 27.1 µM. For the same compound, the GI50 (ACHN renal) was 11.2 µM, the TGI (ACHN renal) was 23.8 µM and the GI50 (BT-549 breast) was 11.5 µM. For the same compound, the TGI (BT-549 breast) was 24.1 µM, the GI50 (CAKI-1 renal) was 12.4 µM and the TGI (CAKI-1 renal) was 26 µM. It also gave a GI50 (CCRF-CEM leukemia) of 2.32 µM, a TGI (CCRF-CEM leukemia) of 4.28 µM and a GI50 (COLO 205 colon) of 3.36 µM. For the same compound, the TGI (COLO 205 colon) was 8.11 µM, the GI50 (DU-145 prostate) was 3.71 µM and the TGI (DU-145 prostate) was 13.1 µM. The GI50 (EKVX NSCLC) was 7.91 µM, the TGI (EKVX NSCLC) was 20.2 µM and the GI50 (HCC-2998 colon) was 12 µM. The TGI (HCC-2998 colon) was 24.4 µM, the GI50 (HCT-116 colon) was 3.01 µM and the TGI (HCT-116 colon) was 11.2 µM. For the same compound, the GI50 (HCT-15 colon) was 11.7 µM, the TGI (HCT-15 colon) was 24.3 µM and the GI50 (HL-60(TB) leukemia) was 7.18 µM. For the same compound, the TGI (HL-60(TB) leukemia) was 18.9 µM, the GI50 (HOP-62 NSCLC) was 12.4 µM and the TGI (HOP-62 NSCLC) was 25.5 µM. The GI50 (HOP-92 NSCLC) was 11.9 µM, the TGI (HOP-92 NSCLC) was 24.5 µM and the GI50 (HS 578T breast) was 10.5 µM. The TGI (HS 578T breast) was 22.4 µM, the GI50 (HT29 colon) was 15.6 µM and the TGI (HT29 colon) was 29.7 µM. The GI50 (IGROV1 ovarian) was 11.8 µM, the TGI (IGROV1 ovarian) was 24.1 µM and the GI50 (K-562 leukemia) was 7.51 µM. The TGI (K-562 leukemia) was 20.2 µM, the GI50 (KM12 colon) was 3.31 µM and the TGI (KM12 colon) was 12.3 µM. The GI50 (LOX IMVI melanoma) was 7.46 µM, the TGI (LOX IMVI melanoma) was 19.8 µM and the GI50 (M14 melanoma) was 3.93 µM. It also gave a TGI (M14 melanoma) of 14.3 µM, a GI50 (MALME-3M melanoma) of 3.38 µM and a TGI (MALME-3M melanoma) of 12.6 µM. For the same compound, the GI50 (MCF7 breast) was 4.65 µM, the TGI (MCF7 breast) was 19.4 µM and the GI50 (MDA-MB-231 breast) was 15.7 µM. The TGI (MDA-MB-231 breast) was 29.4 µM, the GI50 (MDA-MB-435 melanoma) was 4.96 µM and the TGI (MDA-MB-435 melanoma) was 15 µM. It also gave a GI50 (MDA-MB-468 breast) of 2.49 µM, a TGI (MDA-MB-468 breast) of 10 µM and a GI50 (MOLT-4 leukemia) of 1.92 µM. It also gave a TGI (MOLT-4 leukemia) of 3.52 µM.
